Measured values reported in patent publication US20190060428A1, “FORMULATIONS FOR NEOPLASIA VACCINES AND METHODS OF PREPARING THEREOF” (The Broad Institue Inc., priority 2015, published 2019).

Columns and labels:
Type in all cases: physicochemical
[1] = Solubility of peptides in DMSO (50 mg/ml)
Procedure: The only problematic peptides are very hydrophobic peptides. Additional peptide solubility conditions were tested. Peptides CS6709, CS6712, CS6720, CS6726, and CS6783 were weighed at approximately 10 mg each. The peptides were then dissolved in approximately 200 μL USP grade DMSO to obtain a 50 mg/mL concentration for each peptide. […] The sample appeared to be cloudy. Additional 50 μL increments of DMSO were added to Peptide CS6709 up to 400 μL; for a total of 600 μL of DMSO.

[2] = Peptide diluent matrix (precipitation of DMSO dissolved peptides in various liquids); design: key to Precipitation in diluent: Liposome / Precipitation in diluent: PBS pH 7.4 / Precipitation in diluent: Water / Precipitation in diluent: 10% Sucrose / Precipitation in diluent: D5W (5% Dextrose USP Grade Inj): P = precipitation; NP = no precipitation
Procedure: Additional peptide solubility conditions were tested. Peptides CS6709, CS6712, CS6720, CS6726, and CS6783 were weighed at approximately 10 mg each. The peptides were then dissolved in approximately 200 μL USP grade DMSO to obtain a 50 mg/mL concentration for each peptide. […] The sample appeared to be cloudy. Additional 50 μL increments of DMSO were added to Peptide CS6709 up to 400 μL; for a total of 600 μL of DMSO. […] To dilute the peptides to 400 μg, a PBS pH 7.4 solution without potassium was prepared. All 5 DMSO peptide samples (50 mg/mL) were placed in a single vial for dilution to 400 μg/mL. Each DMSO peptide was added to the vial at 40 μL, except for CS6709 which was at a concentration of 16.67 mg/mL. The volume of CS6709 added to the single vial was 120 μL. The samples were diluted to 400 μg by adding 4.72 mL PBS pH 7.4. Upon addition of the PBS pH 7.4, it was observed that one or more of the peptides had precipitated out. To determine which of the peptides precipitated, Applicants followed the matrix in Table 5 below using very small amounts (10-20 μL) of the DMSO dissolved peptides and adding these peptides to the various liquids.

[3] = Direct dissolution of peptides in D5W without DMSO; settings: <1 mg peptide

H-LTDLPGRIRVAPQQNDLDSPQQISISNAE-OH [CS6709]
Concentration at which peptide went into solution (clear) in DMSO [1]: 16670 µg/mL | Dissolution in DMSO at 50 mg/mL ([1]; 10.02 mg in 200 μL DMSO): did not fully dissolve | Precipitation in diluent: 10% Sucrose ([2]; 10-20 μL DMSO dissolved peptide added to 10% Sucrose): NP | Precipitation in diluent: D5W (5% Dextrose USP Grade Inj) ([2]; 10-20 μL DMSO dissolved peptide added to D5W): NP | Precipitation in diluent: Liposome ([2]; 10-20 μL DMSO dissolved peptide added to Liposome): NP | Precipitation in diluent: PBS pH 7.4 ([2]; 10-20 μL DMSO dissolved peptide added to PBS pH 7.4): NP | Precipitation in diluent: Water ([2]; 10-20 μL DMSO dissolved peptide added to Water): NP | Dissolution directly in D5W without using DMSO [3]: could be dissolved directly in D5W
